# In patent US12091425B2 (AMGEN INC., priority 2016, dated 2024):
# Target: T1, Mcl-1/Bim interaction, recombinant human Mcl-1 (171-327) (Homo sapiens, UniProt Q07820)
# T1 construct: made in house
# Experiment: Cell free Mcl-1: Bim Affinity Assay (Mcl-1 HTRF)
# Assay type: binding
# Details: TR-FRET, 0.1 nM Mcl-1 (171-327), 0.05 nM biotin-Bim (51-76)
# Method in brief: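 Biotin-Bim(51-76) peptide, TR-FRET readout, overnight incubation; IC50 from duplicate competition curves, 4-parameter fit.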
# T1 sequence (Q07820 171-327): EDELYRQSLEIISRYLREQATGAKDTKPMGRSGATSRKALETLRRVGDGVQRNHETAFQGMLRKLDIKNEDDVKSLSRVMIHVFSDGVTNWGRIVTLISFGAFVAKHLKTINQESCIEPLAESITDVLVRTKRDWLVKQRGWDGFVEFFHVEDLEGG
row,SMILES,IC50 [nM]
1,CCN1CC/C=C/[C@H](OC)[C@@H]2CC[C@H]2CN2C[C@@]3(CCCc4cc(Cl)ccc43)COc3ccc(cc32)C(=O)NS1(=O)=O [Example 45],2.3
2,"COC[C@H]1C/C=C/[C@H](OC)[C@@H]2CC[C@H]2CN2C[C@@]3(CCCc4cc(Cl)ccc43)COc3ccc(cc32)C(=O)NS(=O)(=O)[C@@H]1C [Example 2, (1S,3′R,6′R,7′S,8′E,11′R,12′R)-6-chloro-7′-methoxy-11′-(methoxymethyl)-12′-methyl-3,4-dihydro-2H,15′H-spiro[naphthalene-1,22′-[20]oxa[13]thia[1,14]diazatetracyclo[14.7.2.0^3,6.0^19,24]pentacosa [8,16,18,24]tetraen]-15′-one 13′,13′-dioxide]",6.85
3,"CCO[C@H]1/C=C/CC[C@@H](CC)S(=O)(=O)NC(=O)c2ccc3c(c2)N(C[C@@H]2CC[C@H]21)C[C@@]1(CCCc2cc(Cl)ccc21)CO3 [Example 975, (1S,3′R,6′R,7′S,8′E,12′R)-6-chloro-7′-ethoxy-12′-ethyl-3,4-dihydro-2H,15′H-spiro[naphthalene-1,22′-[20]oxa[13]thia[1,14]diazatetracyclo[14.7.2.0^3,6.0^19,24]pentacosa [8,16,18,24]tetraen]-15′-one 13′,13′-dioxide]",2.15
4,"CC[C@@H]1CC/C=C/[C@H](OCCOC)[C@@H]2CC[C@H]2CN2C[C@@]3(CCCc4cc(Cl)ccc43)COc3ccc(cc32)C(=O)NS1(=O)=O [Example 980, (1S,3′R,6′R,7′S,8′E,12′R)-6-chloro-12′-ethyl-7′-(2-methoxyethoxy)-3,4-dihydro-2H,15′H-spiro[naphthalene-1,22′-[20]oxa[13]thia[1,14]diazatetracyclo[14.7.2.0^3,6.0^19,24]pentacosa [8,16,18,24]tetraen]-15′-one 13′,13′-dioxide]",0.755
5,"C[C@]12CC[C@H]1CN1C[C@@]3(CCCc4cc(Cl)ccc43)COc3ccc(cc31)C(=O)NS(=O)(=O)CCCCC[C@@H]2O (single isomer, unassigned) [Example 121]",12.2
6,"O=C1NS(=O)(=O)C2CCCC(CCC(O)C3CCC3CN3CC4(CCCc5cc(Cl)ccc54)COc4ccc1cc43)C2 (single isomer, unassigned) [Example 106]",16.9
7,"CO[C@@H]1CCCCCS(=O)(=O)NC(=O)c2ccc3c(c2)N(C[C@@H]2CC[C@H]21)C[C@@]1(CCCc2cc(Cl)ccc21)CO3 [Example 1094, (1S,3′R,6′R,7′R)-6-chloro-7′-methoxy-3,4-dihydro-2H,15′H-spiro [naphthalene-1,22′-[20]oxa[13]thia[1,14]diazatetracyclo[14.7.2.0^3,6.0^19,24]pentacosa [16,18,24]trien]-15′-one 13′,13′-dioxide]",17.8

# Same assay, conditions: cell free Mcl-1:Bim TR-FRET, recombinant human Mcl-1 (171-327)
row,SMILES,IC50 [nM]
1,"O=C1NS(=O)(=O)CCOCCC[C@@H]2CC[C@H]2CN2C[C@@]3(CCCc4cc(Cl)ccc43)COc3ccc1cc32 (single isomer, unassigned) [Example 815]",1.26
2,"O=C1NS(=O)(=O)CC/C=C/[C@H](O)C[C@@H]2CC[C@H]2CN2C[C@@]3(CCCc4cc(Cl)ccc43)COc3ccc1cc32 (single isomer, unassigned) [Example 884, (1S,3′R,6′S,8′R,9′E)-6-chloro-8′-hydroxy-3,4-dihydro-2H,15′H-spiro[naphthalene-1,22′-[20]oxa[13]thia[1,14]diazatetracyclo[14.7.2.0^3,6.0^19,24]pentacosa [9,16,18,24]tetraen]-15′-one 13′,13′-dioxide or (1S,3′R,6′S,8′S,9′E)-6-chloro-8′-hydroxy-3,4-dihydro-2H,15′H-spiro[naphthalene-1,22′-[20]oxa[13]thia[1,14]diazatetracyclo[14.7.2.0^3,6.0^19,24]pentacosa [9,16,18,24]tetraen]-15′-one 13′,13′-dioxide]",1.29
3,"C[C@@H]1[C@H](O)C/C=C/C[C@@H]2CC[C@H]2CN2C[C@@]3(CCCc4cc(Cl)ccc43)COc3ccc(cc32)C(=O)NS1(=O)=O (single isomer, unassigned) [Example 506]",15.5
